As usually defined, the IC50 is the concentration that gives 50% inhibition.

SMILES strings stand for the structures.

For the first series, the system named is ACS patients.
Assay: not given
As to conditions: TRACER phase III trial; cited from earlier work.
`CCOC(=O)N[C@@H]1CC[C@@H]2[C@@H](C1)C[C@H]1C(=O)O[C@H](C)[C@H]1[C@H]2/C=C/c1ccc(-c2cccc(F)c2)cn1` [vorapaxar]: the Cardiovascular events entry is on record as “did not significantly reduce cardiovascular events” and the “Risk of major bleeding” value was “significantly increased the risk of major bleeding”.

In a further series the target is T1, PAR4 (Homo sapiens, UniProt Q96RI0).
T1 construct: expressed in transfected cells; host or cells: HEK293 PAR4 Clone 1.2A (BMS Arctic ID 383940)
T1 sequence (Q96RI0 18-385): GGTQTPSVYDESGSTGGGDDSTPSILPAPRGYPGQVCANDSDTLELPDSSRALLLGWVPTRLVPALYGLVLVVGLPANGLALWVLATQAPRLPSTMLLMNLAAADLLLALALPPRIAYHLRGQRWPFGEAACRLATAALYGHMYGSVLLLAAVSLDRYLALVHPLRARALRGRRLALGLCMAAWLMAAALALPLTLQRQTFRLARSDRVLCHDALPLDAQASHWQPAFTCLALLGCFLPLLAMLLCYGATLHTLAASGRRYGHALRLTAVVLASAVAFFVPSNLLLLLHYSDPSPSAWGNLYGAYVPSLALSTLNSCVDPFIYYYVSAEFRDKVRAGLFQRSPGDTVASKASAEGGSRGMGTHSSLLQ
In words: PAR4 FLIPR assay: calcium mobilization in PAR4-expressing HEK293 cells. The format is cell-based.
Settings: not given
The text has this:
The FLIPR assay is an exemplary in vitro assay for measuring the activity of the PAR4 antagonists of the present invention. In this assay, intracellular calcium mobilization is induced in PAR4 expressing cells by a PAR4 agonist and calcium mobilization is monitored.
HEK293 cells stably expressing PAR4 were generated by a standard method of transfection of human PAR4 (F2R23) cDNA expression vector and selected based on PAR4 protein expression or mRNA expression. […] Therefore, the same cells were also used to determine selectivity against PAR1 and agonist activity for both receptors.
FLIPR-based calcium mobilization assay in HEK293 cells was used to measure PAR4 antagonism, agonism, and selectivity against PAR1. […] Counter screens for agonist activity and PAR1 antagonist activity were also performed. […] Cells were plated overnight prior to the experiment in a black 384-well Purecoat Amine clear bottom plate (Becton Dickinson Biosciences, San Jose, Calif.) at 10,000 cells/well in 30 μL growth medium and incubated in a humidified chamber at 37° C. with 5% CO2 overnight. Prior to compound addition, the cell medium was replaced with 40 μL of 1× calcium and magnesium-containing Hank's Balanced Saline Solution (HBSS) (with 20 mM HEPES) and 1:1000 diluted fluorescent calcium indicator (Codex Biosolutions, Gaithersburg, Md.). After a 30 minute incubation period at 37° C., and a further 30 minute incubation and equilibration period at room temperature, 20 μL test compound (diluted in 1×HBSS buffer) was added at various concentrations at 0.17% dimethyl sulfoxide (DMSO) final concentration. Changes in fluorescence intensity were measured using a Functional Drug Screening System (FDSS, Hamamatsu, Japan) to determine agonist activities. The cells were then incubated for 30 minutes at room temperature followed by addition of 20 μL of agonist peptide for antagonist activity measurement. […] Compound potency was derived from 11-point concentration-response curves.
(In general: Calcium assays in cells follow changes in intracellular calcium, usually with a dye or a luminescent sensor.)
Consider `COc1ccc(NC(=O)c2csc(-c3cc(C)cc4nc(OC(F)F)cnc34)n2)cc1` [Example 32, 2-(2-(difluoromethoxy)-7-methylquinoxalin-5-yl)-N-(4-methoxyphenyl)thiazole-4-carboxamide], for which the IC50 was determined as 2300 nM.

Consider `Cc1cc(-c2nc(C(=O)N3CCC(CO)CC3)cs2)c2ncc(OC(F)F)nc2c1` [Example 33, (2-(2-(difluoromethoxy)-7-methylquinoxalin-5-yl)thiazol-4-yl)(4-(hydroxymethyl)piperidin-1-yl)methanone], for which the IC50 was 570 nM. The same measure, in the same setting: for `Cc1cc(-c2nccs2)c2ncc(OC(F)F)nc2c1` [Example 34, 2-(2-(difluoromethoxy)-7-methylquinoxalin-5-yl)thiazole] the value was 760 nM.

Take `Cc1cc(-c2nnc(-c3ccccc3)s2)c2ncc(OC(F)F)nc2c1` [Example 35, 2-(2-(difluoromethoxy)-7-methylquinoxalin-5-yl)-5-phenyl-1,3,4-thiadiazole]: the IC50 came to 25 nM. `Cc1cc(-c2nc(C)cs2)c2ncc(OC(F)F)nc2c1` [Example 36, 2-(2-(difluoromethoxy)-7-methylquinoxalin-5-yl)-4-methylthiazole]: the IC50 worked out at 64 nM. `Cc1cc(-c2ncc(-c3cccc4cc[nH]c34)s2)c2ncc(OC(F)F)nc2c1` [Example 37, 2-(2-(difluoromethoxy)-7-methylquinoxalin-5-yl)-5-(1H-indol-7-yl)thiazole]: the IC50 came out at 60 nM. Same read-out and setting: for `Cc1cc(-c2ncc(-c3cccc4[nH]ccc34)s2)c2ncc(OC(F)F)nc2c1` [Example 38, 2-(2-(difluoromethoxy)-7-methylquinoxalin-5-yl)-5-(l H-indol-4-yl)thiazole] the value was 820 nM; for `Cc1cc(-c2ncc(CO)s2)c2ncc(OC(F)F)nc2c1` [Example 39, (2-(2-(difluoromethoxy)-7-methylquinoxalin-5-yl)thiazol-5-yl)methanol], 2000 nM. Still for that read-out and setting: for `Cc1cc(-c2ncc(-c3ccn[nH]3)s2)c2ncc(OC(F)F)nc2c1` [Example 40, 2-(2-(difluoromethoxy)-7-methylquinoxalin-5-yl)-5-(1H-pyrazol-5-yl)thiazole] the value was 23 nM; for `Cc1cc(-c2ncc(-c3ccc4cc[nH]c4c3)s2)c2ncc(OC(F)F)nc2c1` [Example 42, 2-(2-(difluoromethoxy)-7-methylquinoxalin-5-yl)-5-(1H-indol-6-yl)thiazole], 81 nM. The same measure, in the same setting: the value for `Cc1cc(-c2ncc(-c3ccncc3)s2)c2ncc(OC(F)F)nc2c1` [Example 43, 2-(2-(difluoromethoxy)-7-methylquinoxalin-5-yl)-5-(pyridin-4-yl)thiazole] was 330 nM. As to `Cc1cc(-c2ncc(-c3ccccn3)s2)c2ncc(OC(F)F)nc2c1` [Example 44, 2-(2-(difluoromethoxy)-7-methylquinoxalin-5-yl)-5-(pyridin-2-yl)thiazole], the IC50 turned out to be 79 nM. Consider `COc1cnc2c(-c3ncc(-c4ccccc4C(F)F)s3)cc(C)cc2n1` [Example 45, 5-(2-(difluoromethyl)phenyl)-2-(2-methoxy-7-methylquinoxalin-5-yl)thiazole], for which the IC50 worked out at 25 nM. Turning to `COc1cnc2c(-c3ncc(-c4cc(O)c(F)c(F)c4)s3)cc(C)cc2n1` [Example 46, 2,3-difluoro-5-(2-(2-methoxy-7-methylquinoxalin-5-yl)thiazol-5-yl)phenol], the IC50 turned out to be 14 nM.

For the compound `COc1cnc2c(-c3nc(C(F)(F)F)c(C(=O)C4CCCCC4)s3)cc(C)cc2n1` [Example 47, Cyclohexyl(2-(2-methoxy-7-methylquinoxalin-5-yl)-4-(trifluoromethyl)thiazol-5-yl) methanone], the half-inhibitory concentration (IC50) came to 53 nM. As to `COCc1cnc2c(-c3ncc(-c4ccn[nH]4)s3)cc(C)cc2n1` [Example 48, 2-(2-(methoxymethyl)-7-methylquinoxalin-5-yl)-5-(1H-pyrazol-5-yl)thiazole], the IC50 was 3.1 nM. Take `COCc1cnc2c(-c3ncc(-c4cccc(O)c4)s3)cc(C)cc2n1` [Example 49, 3-(2-(2-(methoxymethyl)-7-methylquinoxalin-5-yl)thiazol-5-yl)phenol]: the 50% inhibitory concentration (IC50) worked out at 19 nM. On to `COCc1cnc2c(-c3ncc(-c4cc(F)ccc4O)s3)cc(C)cc2n1` [Example 50, 4-fluoro-2-(2-(2-(methoxymethyl)-7-methylquinoxalin-5-yl)thiazol-5-yl)phenol], for which the IC50 stood at 5.7 nM. Same read-out and setting: the value for `Cc1cc(-c2ncc(-c3cccc(O)c3)s2)c2ncc(OC(F)F)nc2c1` [Example 51, 3-(2-(2-(difluoromethoxy)-7-methylquinoxalin-5-yl)thiazol-5-yl)phenol] was 7.1 nM; that for `COc1ccc(-c2cnc(-c3cc(C)cc4nc(OC)cnc34)s2)nc1` [Example 52, 2-(2-methoxy-7-methylquinoxalin-5-yl)-5-(5-methoxypyridin-2-yl)thiazole] was 550 nM. With `COCc1cnc2c(-c3ncc(-c4ccc(OC)cn4)s3)cc(C)cc2n1` [Example 53, 2-(2-(methoxymethyl)-7-methylquinoxalin-5-yl)-5-(5-methoxypyridin-2-yl)thiazole], the IC50 was 290 nM.

Staying with this series, now noted: HEK293 cells expressing human PAR4; calcium mobilization induced by H-Ala-Phe(4-F)-Pro-Gly-Trp-Leu-Val-Lys-Asn-Gly-NH2.
Regarding `Cc1cc(-c2nc(C(C)(C)C)cs2)c2ncc(OC(F)F)nc2c1` [Example 41], the IC50 worked out at 450 nM.

Another series has as its target T2, protease-activated receptor type 4 (PAR4) (Homo sapiens, UniProt Q96RI0).
T2 sequence (Q96RI0 18-385): T1 sequence (Q96RI0 18-385)
Assay: not given
As to conditions: abstract of Lee et al. 2001; cited from earlier work.
In the case of `CCOC(=O)c1ccc(-c2nn(Cc3ccccc3)c3ccccc23)cc1` [YD-3, ethyl 4-(1-benzyl-1H-indazol-3-yl)benzoate], the “Inhibition of PAR4-dependent platelet activation” value was “selective and potent inhibitor”.

The values above are taken from patent US10815224B2, “Monocyclic heteroaryl substituted compounds” (Bristol-Myers Squibb Company, priority 2016, dated 2020).
